Measurements from patent publication US9340600B2 (Indiana University Research and Technology Corporation, priority 2012, dated 2016).
*1 amine or outer side, *2 acyl side, *3 side chain or, on linkers, in order; H or OH if unused. Where a SMILES comes first, the peptide text is derived from it. Side-chain parts run from the residue outwards. [ ]: non-standard residue; d: D form. The star is where a group is joined. γGlu = O=C(O)[C@H](CCC(=O)[*:2])N[*:1]; Palmitoyl = CCCCCCCCCCCCCCCC(=O)*; hSer = N[C@@H](CCO)C(=O)O; Aib = CC(C)(N)C(=O)O

Key:
Assay type in all cases: cell-based
GLP-1 receptor = target: T1, GLP-1 receptor (Homo sapiens, UniProt P43220); experiment: cAMP induction, firefly luciferase-based reporter assay in HEK293 cells co-transfected with GLP-1 receptor; settings: EC50 at GLP-1 Receptor
T1 construct: expressed in transfected cells; host or cells: HEK293
T1 sequence (P43220 24-463): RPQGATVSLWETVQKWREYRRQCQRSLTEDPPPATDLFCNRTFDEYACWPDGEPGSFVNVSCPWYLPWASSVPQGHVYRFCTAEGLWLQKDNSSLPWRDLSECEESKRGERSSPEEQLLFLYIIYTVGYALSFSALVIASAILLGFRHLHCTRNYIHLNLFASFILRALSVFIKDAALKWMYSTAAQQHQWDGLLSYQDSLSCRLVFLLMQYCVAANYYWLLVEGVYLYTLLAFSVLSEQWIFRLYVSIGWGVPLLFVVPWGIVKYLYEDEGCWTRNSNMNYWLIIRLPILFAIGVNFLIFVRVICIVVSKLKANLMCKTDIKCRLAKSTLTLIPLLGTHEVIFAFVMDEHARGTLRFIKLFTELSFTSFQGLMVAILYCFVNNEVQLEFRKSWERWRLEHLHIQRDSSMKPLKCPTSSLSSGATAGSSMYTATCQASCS
Source text: (§1) This example describes an exemplary method of testing the biological activity of the peptides of the present disclosures, which method involves assaying cAMP synthesis.

glucagon receptor = target: T2, glucagon receptor (Homo sapiens, UniProt P47871); experiment: cAMP induction, firefly luciferase-based reporter assay in HEK293 cells co-transfected with glucagon receptor; settings: EC50 at Glucagon Receptor
T2 construct: expressed in transfected cells; host or cells: HEK293
T2 sequence (P47871 26-477): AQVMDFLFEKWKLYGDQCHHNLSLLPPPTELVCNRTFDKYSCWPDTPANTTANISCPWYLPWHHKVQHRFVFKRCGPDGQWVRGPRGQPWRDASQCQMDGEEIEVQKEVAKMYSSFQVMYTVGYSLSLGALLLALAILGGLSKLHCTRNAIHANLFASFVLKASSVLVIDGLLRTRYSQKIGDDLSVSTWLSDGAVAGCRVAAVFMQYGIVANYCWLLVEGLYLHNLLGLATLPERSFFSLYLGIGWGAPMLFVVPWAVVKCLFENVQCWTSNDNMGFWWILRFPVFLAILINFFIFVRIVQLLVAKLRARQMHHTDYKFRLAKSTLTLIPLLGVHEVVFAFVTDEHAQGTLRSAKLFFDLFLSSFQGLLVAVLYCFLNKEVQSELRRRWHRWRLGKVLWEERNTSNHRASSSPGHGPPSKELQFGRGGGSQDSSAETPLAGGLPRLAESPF
Source text: as §1

GIP receptor = target: T3, GIP receptor (Homo sapiens, UniProt P48546); experiment: cAMP induction, firefly luciferase-based reporter assay in HEK293 cells co-transfected with GIP receptor; settings: EC50 at GIP Receptor
T3 construct: expressed in transfected cells; host or cells: HEK293
T3 sequence (P48546 22-466): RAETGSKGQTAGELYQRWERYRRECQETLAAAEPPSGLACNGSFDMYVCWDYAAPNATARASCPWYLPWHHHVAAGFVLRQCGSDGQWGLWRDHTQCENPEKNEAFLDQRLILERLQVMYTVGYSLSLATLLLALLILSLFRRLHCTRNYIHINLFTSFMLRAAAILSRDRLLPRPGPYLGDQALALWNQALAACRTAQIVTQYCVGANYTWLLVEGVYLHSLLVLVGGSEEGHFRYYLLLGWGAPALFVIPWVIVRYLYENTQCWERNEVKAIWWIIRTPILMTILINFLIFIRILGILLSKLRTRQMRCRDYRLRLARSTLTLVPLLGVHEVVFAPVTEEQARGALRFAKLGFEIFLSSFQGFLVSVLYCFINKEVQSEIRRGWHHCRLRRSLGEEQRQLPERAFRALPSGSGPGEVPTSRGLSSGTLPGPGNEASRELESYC
Source text: as §1

[1] = Table 2, analogs of SEQ ID NO: 18 varying at positions 16-21
[2] = Table 3, analogs of SEQ ID NO: 18 varying at position 3

Structure (SMILES): CCCCCCCCCCCCCCCC(=O)N[C@@H](CCC(=O)NCCCC[C@H](NC(=O)[C@H](CC(=O)O)NC(=O)[C@H](CO)NC(=O)[C@@H](NC(=O)[C@H](Cc1ccccc1)NC(=O)[C@@H](NC(=O)CNC(=O)[C@H](CCC(N)=O)NC(=O)C(C)(C)NC(=O)[C@@H](N)Cc1c[nH]cn1)[C@@H](C)O)[C@@H](C)O)C(=O)N[C@@H](CO)C(=O)N[C@@H](CCCCN)C(=O)N[C@@H](Cc1ccc(O)cc1)C(=O)N[C@@H](CC(C)C)C(=O)N[C@@H](CC(=O)O)C(=O)N[C@@H](CCC(=O)O)C(=O)N[C@@H](CCCNC(=N)N)C(=O)N[C@@H](C)C(=O)N[C@@H](C)C(=O)N[C@@H](Cc1c[nH]cn1)C(=O)N[C@@H](CC(=O)O)C(=O)N[C@@H](Cc1ccccc1)C(=O)N[C@H](C(=O)N[C@@H](CCC(N)=O)C(=O)N[C@@H](Cc1c[nH]c2ccccc12)C(=O)N[C@@H](CC(C)C)C(=O)N[C@@H](CC(C)C)C(=O)N[C@@H](CC(=O)O)C(=O)NCC(=O)NCC(=O)N1CCC[C@H]1C(=O)N[C@@H](CO)C(=O)N[C@@H](CO)C(=O)NCC(=O)N[C@@H](C)C(=O)N1CCC[C@H]1C(=O)N1CCC[C@H]1C(=O)N1CCC[C@H]1C(=O)N[C@@H](CO)C(N)=O)C(C)C)C(=O)O [compound 19] (H-H[Aib]QGTFTSDK([γGlu-Palmitoyl])SKYLDERAAHDFVQWLLDGGPSSGAPPPS-NH2)
- EC50 (GLP-1 receptor; [1]): 18 pM
- EC50 (glucagon receptor; [1]): 0.012 nM
- EC50 (GIP receptor; [1]): 15 pM

Structure (SMILES): CCCCCCCCCCCCCCCC(=O)N[C@@H](CCC(=O)NCCCC[C@H](NC(=O)[C@H](CC(=O)O)NC(=O)[C@H](CO)NC(=O)[C@@H](NC(=O)[C@H](Cc1ccccc1)NC(=O)[C@@H](NC(=O)CNC(=O)[C@H](CCC(=O)O)NC(=O)C(C)(C)NC(=O)[C@@H](N)Cc1c[nH]cn1)[C@@H](C)O)[C@@H](C)O)C(=O)N[C@@H](CO)C(=O)N[C@@H](CCCCN)C(=O)N[C@@H](Cc1ccc(O)cc1)C(=O)N[C@@H](CC(C)C)C(=O)N[C@@H](CCC(=O)O)C(=O)N[C@@H](CCC(=O)O)C(=O)N[C@@H](CCCNC(=N)N)C(=O)N[C@@H](C)C(=O)N[C@@H](C)C(=O)N[C@@H](CCC(N)=O)C(=O)N[C@@H](CCC(=O)O)C(=O)N[C@@H](Cc1ccccc1)C(=O)N[C@H](C(=O)N[C@@H](CCC(N)=O)C(=O)N[C@@H](Cc1c[nH]c2ccccc12)C(=O)N[C@@H](CC(C)C)C(=O)N[C@@H](CC(C)C)C(=O)N[C@@H](CCC(=O)O)C(=O)NCC(=O)NCC(=O)N1CCC[C@H]1C(=O)N[C@@H](CO)C(=O)N[C@@H](CO)C(=O)NCC(=O)N[C@@H](C)C(=O)N1CCC[C@H]1C(=O)N1CCC[C@H]1C(=O)N1CCC[C@H]1C(=O)N[C@@H](CO)C(N)=O)C(C)C)C(=O)O [compound 29] (H-H[Aib]EGTFTSDK([γGlu-Palmitoyl])SKYLEERAAQEFVQWLLEGGPSSGAPPPS-NH2; N-terminus assumed)
- EC50 (GLP-1 receptor; [2]): 8 pM
- EC50 (glucagon receptor; [2]): 1.5 nM
- EC50 (GIP receptor; [2]): 17 pM

Structure (SMILES): CCCCCCCCCCCCCCCC(=O)N[C@@H](CCC(=O)NCCCC[C@H](NC(=O)[C@H](CC(=O)O)NC(=O)[C@H](CO)NC(=O)[C@@H](NC(=O)[C@H](Cc1ccccc1)NC(=O)[C@@H](NC(=O)CNC(=O)[C@H](CCC(N)=O)NC(=O)C(C)(C)NC(=O)[C@@H](N)Cc1c[nH]cn1)[C@@H](C)O)[C@@H](C)O)C(=O)N[C@@H](CO)C(=O)N[C@@H](CCCCN)C(=O)N[C@@H](Cc1ccc(O)cc1)C(=O)N[C@@H](CC(C)C)C(=O)N[C@@H](CC(=O)O)C(=O)N[C@@H](CCC(=O)O)C(=O)N[C@@H](CCCNC(=N)N)C(=O)N[C@@H](C)C(=O)NC(C)(C)C(=O)N[C@@H](CCCCN)C(=O)N[C@@H](CCC(=O)O)C(=O)N[C@@H](Cc1ccccc1)C(=O)N[C@H](C(=O)N[C@@H](CCC(N)=O)C(=O)N[C@@H](Cc1c[nH]c2ccccc12)C(=O)N[C@@H](CC(C)C)C(=O)N[C@@H](CC(C)C)C(=O)N[C@@H](CC(=O)O)C(=O)NCC(=O)NCC(=O)N1CCC[C@H]1C(=O)N[C@@H](CO)C(=O)N[C@@H](CO)C(=O)NCC(=O)N[C@@H](C)C(=O)N1CCC[C@H]1C(=O)N1CCC[C@H]1C(=O)N1CCC[C@H]1C(=O)N[C@@H](CO)C(N)=O)C(C)C)C(=O)O [compound 27] (H-H[Aib]QGTFTSDK([γGlu-Palmitoyl])SKYLDERA[Aib]KEFVQWLLDGGPSSGAPPPS-NH2)
- EC50 (GLP-1 receptor; [1]): 2 pM
- EC50 (glucagon receptor; [1]): 0.165 nM
- EC50 (GIP receptor; [1]): 4 pM

Structure (SMILES): CCCCCCCCCCCCCCCC(=O)N[C@@H](CCC(=O)NCCCC[C@H](NC(=O)[C@H](CC(=O)O)NC(=O)[C@H](CO)NC(=O)[C@@H](NC(=O)[C@H](Cc1ccccc1)NC(=O)[C@@H](NC(=O)CNC(=O)[C@H](CCC(N)=O)NC(=O)C(C)(C)NC(=O)[C@@H](N)Cc1c[nH]cn1)[C@@H](C)O)[C@@H](C)O)C(=O)N[C@@H](CO)C(=O)N[C@@H](CCCCN)C(=O)N[C@@H](Cc1ccc(O)cc1)C(=O)N[C@@H](CC(C)C)C(=O)N[C@@H](CC(=O)O)C(=O)NC(C)(C)C(=O)N[C@@H](CCCNC(=N)N)C(=O)N[C@@H](C)C(=O)N[C@@H](C)C(=O)NC(C)(C)C(=O)N[C@@H](CCC(=O)O)C(=O)N[C@@H](Cc1ccccc1)C(=O)N[C@H](C(=O)N[C@@H](CCC(N)=O)C(=O)N[C@@H](Cc1c[nH]c2ccccc12)C(=O)N[C@@H](CC(C)C)C(=O)N[C@@H](CC(C)C)C(=O)N[C@@H](CC(=O)O)C(=O)NCC(=O)NCC(=O)N1CCC[C@H]1C(=O)N[C@@H](CO)C(=O)N[C@@H](CO)C(=O)NCC(=O)N[C@@H](C)C(=O)N1CCC[C@H]1C(=O)N1CCC[C@H]1C(=O)N1CCC[C@H]1C(=O)N[C@@H](CO)C(N)=O)C(C)C)C(=O)O [compound 24] (H-H[Aib]QGTFTSDK([γGlu-Palmitoyl])SKYLD[Aib]RAA[Aib]EFVQWLLDGGPSSGAPPPS-NH2)
- EC50 (GLP-1 receptor; [1]): 10 pM
- EC50 (glucagon receptor; [1]): 0.002 nM
- EC50 (GIP receptor; [1]): 5 pM

Structure (SMILES): CCCCCCCCCCCCCCCC(=O)N[C@@H](CCC(=O)NCCCC[C@H](NC(=O)[C@H](CC(=O)O)NC(=O)[C@H](CO)NC(=O)[C@@H](NC(=O)[C@H](Cc1ccccc1)NC(=O)[C@@H](NC(=O)CNC(=O)[C@H](CCO)NC(=O)C(C)(C)NC(=O)[C@@H](N)Cc1c[nH]cn1)[C@@H](C)O)[C@@H](C)O)C(=O)N[C@@H](CO)C(=O)N[C@@H](CCCCN)C(=O)N[C@@H](Cc1ccc(O)cc1)C(=O)N[C@@H](CC(C)C)C(=O)N[C@@H](CCC(=O)O)C(=O)N[C@@H](CCC(=O)O)C(=O)N[C@@H](CCCNC(=N)N)C(=O)N[C@@H](C)C(=O)N[C@@H](C)C(=O)N[C@@H](CCC(N)=O)C(=O)N[C@@H](CCC(=O)O)C(=O)N[C@@H](Cc1ccccc1)C(=O)N[C@H](C(=O)N[C@@H](CCC(N)=O)C(=O)N[C@@H](Cc1c[nH]c2ccccc12)C(=O)N[C@@H](CC(C)C)C(=O)N[C@@H](CC(C)C)C(=O)N[C@@H](CCC(=O)O)C(=O)NCC(=O)NCC(=O)N1CCC[C@H]1C(=O)N[C@@H](CO)C(=O)N[C@@H](CO)C(=O)NCC(=O)N[C@@H](C)C(=O)N1CCC[C@H]1C(=O)N1CCC[C@H]1C(=O)N1CCC[C@H]1C(=O)N[C@@H](CO)C(N)=O)C(C)C)C(=O)O [compound 33] (H-H[Aib][hSer]GTFTSDK([γGlu-Palmitoyl])SKYLEERAAQEFVQWLLEGGPSSGAPPPS-NH2)
- EC50 (GLP-1 receptor; [2]): 2 pM
- EC50 (glucagon receptor; [2]): 0.015 nM
- EC50 (GIP receptor; [2]): 4 pM
